Data from PubChem BioAssay (NCI).
Where “and” joins values, the source holds several entries; their conditions need not be identical. Equal entries are not always repeated.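 Assay format: 96-well plates, 48-hour exposure. GI50 marks 50% less growth. At the TGI there is no net growth.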

What was measured:
Test in all cases: growth of human tumour cells (NCI), 48 h
KM12 colon = system: KM12 colon
M14 melanoma = system: M14 melanoma
MALME-3M melanoma = system: MALME-3M melanoma
MOLT-4 leukemia = system: MOLT-4 leukemia
NCI/ADR-RES ovarian = system: NCI/ADR-RES ovarian
OVCAR-3 ovarian = system: OVCAR-3 ovarian
OVCAR-4 ovarian = system: OVCAR-4 ovarian
PC-3 prostate = system: PC-3 prostate
TK-10 renal = system: TK-10 renal
UO-31 renal = system: UO-31 renal

Structure (SMILES)	TGI (KM12 colon) [µM]	TGI (M14 melanoma) [µM]	TGI (MALME-3M melanoma)	TGI (MOLT-4 leukemia) [µM]	TGI (NCI/ADR-RES ovarian) [µM]	TGI (OVCAR-3 ovarian) [µM]	TGI (OVCAR-4 ovarian)	TGI (PC-3 prostate) [µM]	TGI (TK-10 renal)	TGI (UO-31 renal) [µM]	GI50 (KM12 colon) [µM]	GI50 (M14 melanoma)	GI50 (MALME-3M melanoma) [µM]	GI50 (MOLT-4 leukemia) [µM]	GI50 (NCI/ADR-RES ovarian) [µM]	GI50 (OVCAR-3 ovarian) [µM]	GI50 (OVCAR-4 ovarian)	GI50 (PC-3 prostate) [µM]	GI50 (TK-10 renal) [µM]	GI50 (UO-31 renal) [µM]
Cn1c2c(c3c(=O)[nH]ncc31)Cc1ccccc1-2	66.8	38.9	44.5 µM	> 100	> 100	41.2	> 100 µM	> 100	29.3 µM	45.1	–	–	–	–	–	–	–	–	–	–
N#Cc1cc(F)cc(Oc2ccc(S(=O)(=O)C(F)F)c3c2CC(F)(F)[C@H]3O)c1	> 100	> 100	> 100 µM	> 100	> 100	> 100	91.7 µM	> 100	82.4 µM	69.9	44.8	30.1 µM	28.5	27.6	26.4	36.5	19 µM	23.9	28.4	15.1
O=C(OCCN=c1c2ccccc2ccc2ccccc12)c1cc([N+](=O)[O-])cc([N+](=O)[O-])c1	> 100	> 100	66.2 µM	> 100	> 100	> 100	> 100 µM	> 100	> 100 µM	> 100	–	–	–	–	–	–	–	–	–	–
COC(=O)c1c(O)ccc2c1c1c(n2Cc2ccc(OC)cc2)C(=O)c2ccccc2C1	> 100	> 100	> 100 µM	> 100	> 100	> 100	> 100 µM	59.5	> 100 µM	> 100	–	–	–	–	–	–	–	–	–	–
COc1ccccc1N=Nc1c(O)ccc2ccccc12	> 100	> 100	16.2 µM and > 100 µM	> 100	> 100	> 100	62.9 µM and 95.2 µM	> 100	31.8 µM and 59.1 µM	39.1	–	33.6 µM and 85 µM	–	–	–	–	10.2 µM and 35.4 µM	–	–	–
O=c1c2ccc(Cl)cc2oc2c(CSc3ccccc3)cccc12	> 65.3	> 100	> 61.1 µM	> 100	> 100	> 100	> 100 µM	> 100	> 100 µM	> 38.4	–	–	–	–	–	–	–	–	–	–
CN(Cc1cnc2nc(N)nc(N)c2n1)c1ccc(C(=O)NC(CCC(=O)O)C(=O)O)c2ccccc12 (stereo unspecified)	> 1000	> 1000	> 1000 µM	> 1000	> 1000	–	> 1000 µM	> 1000	> 1000 µM	> 1000	–	–	> 1000	–	–	32.9	> 1000 µM	89.8	> 1000	–
CC(C)OC(=O)C(NC(=O)C(CC(=O)OCc1ccccc1)NC(=O)OCc1ccccc1)NC(=O)C1C(C)(C)CCC1(C)C (stereo unspecified)	34.9	> 57.1	44.9 µM	> 51	21.2	8.01	14.2 µM	11.2	34.5 µM	13.4	–	–	–	–	–	–	–	–	–	–
CC(C)=CC1C(C(=O)OCc2cc3c(cc2Cl)OCO3)C1(C)C (stereo unspecified)	> 100	> 100	49 µM	31.5	> 100	> 100	> 100 µM	36	> 100 µM	> 100	–	–	–	–	–	–	–	–	–	–
O=c1[nH]ncc2[nH]c3c(c12)CCc1ccccc1-3	> 100	> 100	> 100 µM	69.7	> 100	> 100	> 100 µM	> 100	81.2 µM	> 100	–	–	–	–	–	–	–	–	–	–
Cc1ccc(C(=O)Nc2ccc(CP(=O)(O)O)cc2CP(=O)(O)O)cc1N	> 100	> 100	> 100 µM	> 100	> 100	> 100	> 100 µM	> 100	> 100 µM	> 100	–	–	–	–	–	–	–	–	–	–
Cn1c(CO)ccc1-c1ccc(-c2ccc(CO)[se]2)[se]1	> 64.1	> 73.8	17.7 µM	> 51.2	> 100	26.7	3.67 µM	> 100	> 78.1 µM	> 100	–	–	–	–	–	–	–	–	–	–
O=c1[nH]c2c(Nc3c4ccccc4nc4ccccc34)c([N+](=O)[O-])c(Nc3c4ccccc4nc4ccccc34)c([N+](=O)[O-])c2[nH]1	12	4.76	3.33 µM	2.39	2.24	6.87	10.1 µM	5.97	> 22.5 µM	2.76	–	–	–	–	–	–	–	–	–	–
C[C@H]1CCC/C=C/[C@@H]2C[C@H](OC3OC(CO)C(O)C(O)C3O)C[C@H]2[C@H](O)/C=C/C(=O)O1 (stereo partly specified)	98	> 100	33.1 µM	> 100	> 100	> 100	> 100 µM	> 100	> 100 µM	> 100	–	–	–	–	–	–	–	–	–	–
COc1cc(C=O)cc(C=Nc2ccc(Br)cc2)c1O	> 100	14.2	17.2 µM	62.4	> 100	> 100	> 100 µM	50.5	> 100 µM	50.6	–	–	–	–	–	–	–	–	–	–
